In US20240327359A1, “3-ISOXAZOLIDINONE COMPOUND, PREPARATION METHOD, HERBICIDAL COMPOSITION AND APPLICATION THEREOF” (QINGDAO KINGAGROOT CHEMICAL COMPOUND CO., LTD., priority 2021, published 2024):
Where two headings read alike, the source gives them in different places.

System: weeds
Assay: Activity test of the compositions, soil sealing treatment
Assay type: in vivo
Experimental: The desired active ingredient B was purchased from a reagent company or synthesized by a known method. The technical materials were all dissolved in acetone and diluted with an aqueous solution containing 0.10% emulsifier Tween-80 which were to be used immediately after dilution.
Weeds are cultivated in a controllable sunlight greenhouse at 20 to 30° C., in natural light, and with relative humidity of 57% to 72%. […] The test soil was filled quantitatively to ¾ of the pots and then watered from the bottom of the pots to completely wet the soil to saturation. The test weed seeds were accelerated to just germinate, and then evenly and quantitatively sowed on the surface, then covered with 0.5-1 cm soil according to the seed size, and ready for use 72 hours after sowing.
Each treatment was repeated 4 times. Four pots with 20 weed seeds per pot were treated each time.
The well-sowed test materials were evenly placed on a platform with an area of 0.5 m^2, and solution of agents was sprayed on the soil by the 3WP-2000-type walking spray tower at a dosage of 450 kg/ha and at a spray pressure of 0.3 MPa. After all the solution was sprayed, the valve was closed. After 30 seconds, the door of the spray tower was opened, and the nutritional bowl was taken out. Then the valve was opened, and the spray tube was cleaned by spraying 50 ml of water.
A method for investigating absolute numbers was employed. Whole seedlings of survival weeds were cut off with a blade along the soil surface, and the fresh weight of the weeds was weighed with an analytical balance. For dead weeds, the fresh weight thereof was zero.
The investigation was performed 21 days after the treatment for only once in total.

[1] = Echinochloa crus-galli, soil, read-out: Control effect (%) of B applied alone (B)
[2] = Echinochloa crusgalli, soil (S), B 0.5 g a.i./mu
[3] = Echinochloa crusgalli, soil (S), B 1 g a.i./mu
[4] = Echinochloa crus-galli, Echinochloa crusgalli, soil (S), B 4 g a.i./mu, read-out: Control effect (%) of B applied alone (B)
[5] = Echinochloa crus-galli, Echinochloa crusgalli, soil (S), B 8 g a.i./mu, read-out: Control effect (%) of B applied alone (B)
[6] = Lolium multiflorum, soil (S), B 16 g a.i./mu, read-out: Control effect (%) of B applied alone (B)
[7] = Echinochloa crusgalli, soil (S), B 0.6 g a.i./mu
[8] = Echinochloa crusgalli, soil (S), B 1.2 g a.i./mu
[9] = Potamogeton distinctus, soil, read-out: Control effect (%) of B applied alone (B)
[10] = Echinochloa crusgalli, soil treatment (S), B at 2 g a.i./mu, 21 days

CSc1nnc(C(C)(C)C)c(=O)n1N [metribuzin]
pest or weed control at 75 g/ha (Amaranthus retroflexus, soil (S), B 5 g a.i./mu, read-out: Control effect (%) of B applied alone (B)): 40.5% | pest or weed control at 150 g/ha (Amaranthus retroflexus, soil (S), B 10 g a.i./mu, read-out: Control effect (%) of B applied alone (B)): 56.2%

CCSC(=O)N1CCCCCC1 [molinate]
pest or weed control at 300 g/ha (Echinochloa crus-galli, Echinochloa crusgalli, soil (S), B 20 g a.i./mu, read-out: Control effect (%) of B applied alone (B)): 39.6% | pest or weed control at 600 g/ha (Echinochloa crus-galli, Echinochloa crusgalli, soil (S), B 40 g a.i./mu, read-out: Control effect (%) of B applied alone (B)): 51.7%

CCN(CC)C(=O)C(C)Oc1cccc2ccccc12 (stereo not drawn) [napropamide]
pest or weed control at 120 g/ha [1]: 30.1% | pest or weed control at 240 g/ha [1]: 42.3%

C#CCOc1cc(-n2nc(C(C)(C)C)oc2=O)c(Cl)cc1Cl [oxadiargy1]
Control effect (%) of B applied alone (B) [2]: 36.2% | Control effect (%) of B applied alone (B) [3]: 47.9%

CC(C)Oc1cc(-n2nc(C(C)(C)C)oc2=O)c(Cl)cc1Cl [oxadiazon]
pest or weed control at 60 g/ha [4]: 37.2% | pest or weed control at 120 g/ha [5]: 51.9%

CC1=C(c2ccccc2)C(=O)N(C(C)(C)c2cc(Cl)cc(Cl)c2)CO1 [oxaziclomefone]
pest or weed control at 7.5 g/ha (Echinochloa crus-galli, 504 h, Echinochloa crusgalli, soil treatment (S), B at 0.5 g a.i./mu, 21 days, read-out: Control effect (%) of B applied alone (B)): 33.7% | pest or weed control at 15 g/ha (Echinochloa crus-galli, 504 h, Echinochloa crusgalli, soil treatment (S), B at 1 g a.i./mu, 21 days, read-out: Control effect (%) of B applied alone (B)): 51.2%

CCOc1cc(Oc2ccc(C(F)(F)F)cc2Cl)ccc1[N+](=O)[O-] [oxyfluorfen]
pest or weed control at 15 g/ha (Digitaria sanguinalis, soil (S), B 1 g a.i./mu, read-out: Control effect (%) of B applied alone (B)): 28.6% | pest or weed control at 30 g/ha (Digitaria sanguinalis, soil (S), B 2 g a.i./mu, read-out: Control effect (%) of B applied alone (B)): 39.5%

CCC(CC)Nc1c([N+](=O)[O-])cc(C)c(C)c1[N+](=O)[O-] [pendimethalin]
pest or weed control at 240 g/ha [6]: 23.6% | pest or weed control at 480 g/ha (Lolium multiflorum, soil (S), B 32 g a.i./mu, read-out: Control effect (%) of B applied alone (B)): 42.7%

CC(C)=C1OC(=O)N(c2cc(OC3CCCC3)c(Cl)cc2F)C1=O [pentoxazone]
pest or weed control at 30 g/ha [1]: 40.1% | pest or weed control at 60 g/ha [1]: 57.3%

O=C(Nc1ccc(F)cc1)c1cccc(Oc2cccc(C(F)(F)F)c2)n1 [picolinafen]
Control effect (%) of B applied alone (B) (Galium aparine, soil (S), B 0.5 g a.i./mu): 40.8% | Control effect (%) of B applied alone (B) (Galium aparine, soil (S), B 1 g a.i./mu): 55.7%

CCCOCCN(C(=O)CCl)c1c(CC)cccc1CC [pretilachlor]
pest or weed control at 120 g/ha (Lolium multiflorum, soil (S), B 8 g a.i./mu, read-out: Control effect (%) of B applied alone (B)): 23.4% | pest or weed control at 240 g/ha [6]: 50.9%

CSc1nc(NC(C)C)nc(NC(C)C)n1 [prometryne]
pest or weed control at 90 g/ha (Commelina communis, soil (S), B 6 g a.i./mu, read-out: Control effect (%) of B applied alone (B)): 30.5% | pest or weed control at 180 g/ha (Commelina communis, soil (S), B 12 g a.i./mu, read-out: Control effect (%) of B applied alone (B)): 41.7%

CCCc1ccc2nc(Cl)c(S(=O)(=O)NC(=O)Nc3nc(OC)cc(OC)n3)n2n1 [propyrisulfuron]
Control effect (%) of B applied alone (B) [7]: 22.6% | Control effect (%) of B applied alone (B) [8]: 37.5%

C#CCN(C)c1c(C#N)cnn1-c1nn2c(c1Cl)CCCC2 [pyraclonil]
Control effect (%) of B applied alone (B) [3]: 22.5% | Control effect (%) of B applied alone (B) (Echinochloa crusgalli, soil (S), B 2 g a.i./mu): 43.6%

Cn1nc(C(F)(F)F)c(CS(=O)(=O)C2=NOC(C)(C)C2)c1OC(F)F [pyroxasulfone]
pest or weed control at 30 g/ha (Lolium multiflorum, soil (S), B 2 g a.i./mu, read-out: Control effect (%) of B applied alone (B)): 24.7% | pest or weed control at 60 g/ha (Lolium multiflorum, soil (S), B 4 g a.i./mu, read-out: Control effect (%) of B applied alone (B)): 49.2%

CC(C)N(C)S(=O)(=O)NC(=O)c1cc(-n2c(=O)cc(C(F)(F)F)n(C)c2=O)c(F)cc1Cl [saflufenacil]
pest or weed control at 3.75 g/ha (Amaranthus retroflexus, soil (S), B 0.25 g a.i./mu, read-out: Control effect (%) of B applied alone (B)): 35.2% | pest or weed control at 7.5 g/ha (Amaranthus retroflexus, soil (S), B 0.5 g a.i./mu, read-out: Control effect (%) of B applied alone (B)): 43.8%

CCNc1nc(NCC)nc(SC)n1 [simetryn]
pest or weed control at 90 g/ha [9]: 41.5% | pest or weed control at 180 g/ha [9]: 58.3%

Cc1nn(-c2cc(NS(C)(=O)=O)c(Cl)cc2Cl)c(=O)n1C(F)F [sulfentrazone]
pest or weed control at 60 g/ha [4]: 34.2% | pest or weed control at 120 g/ha [5]: 53.6%

CS(=O)(=O)c1ccc(C(=O)C2C(=O)CCCC2=O)c(Cl)c1COCC1CCCO1 (stereo not drawn) [tefuryltrione]
Control effect (%) of B applied alone (B) [7]: 28.4% | Control effect (%) of B applied alone (B) [8]: 49.7%

CCNc1nc(NC(C)(C)C)nc(SC)n1 [terbutryne]
Control effect (%) of B applied alone (B) (Alopecurus japonicus, soil (S), B 12 g a.i./mu): 32.4% | Control effect (%) of B applied alone (B) (Alopecurus japonicus, soil (S), B 24 g a.i./mu): 41.9%

CCNc1nc(Cl)nc(NC(C)(C)C)n1 [terbutylazine]
Control effect (%) of B applied alone (B) (Echinochloa crusgalli, soil (S), B 6 g a.i./mu): 33.8% | Control effect (%) of B applied alone (B) (Echinochloa crusgalli, soil (S), B 12 g a.i./mu): 52.7%

CN1C[C@H](c2cccc(C(F)(F)F)c2)[C@@H](C(=O)Nc2ccccc2F)C1=O [tetflupyrolimet]
Control effect (%) of B applied alone (B) (Echinochloa crusgalli, soil treatment (S), B at 1 g a.i./mu, 21 days): 34.7% | Control effect (%) of B applied alone (B) [10]: 55.6%

COc1nc(OC)nc(C(=O)c2cccc(F)c2N(C)S(=O)(=O)C(F)F)n1 [triafamone]
Control effect (%) of B applied alone (B) (Echinochloa crusgalli, soil (S), B 0.25 g a.i./mu): 27.6% | Control effect (%) of B applied alone (B) [2]: 38.4%

Cc1cc(C)cc(OCC(C)Nc2nc(N)nc(C(C)(C)F)n2)c1 (stereo not drawn) [triaziflam]
Control effect (%) of B applied alone (B) [10]: 29.4% | Control effect (%) of B applied alone (B) (Echinochloa crusgalli, soil treatment (S), B at 4 g a.i./mu, 21 days): 40.5%
